Some test systems named below: SNB-78 CNS; TK-10 renal; OVCAR-4 ovarian; SK-OV-3 ovarian; OVCAR-8 ovarian; OVCAR-5 ovarian; SK-MEL-5 melanoma; DMS 273 small cell lung; HCT-15 colon; BT-549 breast.
What all share (assay): inhibition of tumour cell growth, NCI panel, 48 h

Structures are written as SMILES.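 Results reflect a 48-hour exposure of cells in 96-well plates to compound at five concentrations. GI50 is the concentration that inhibits growth by half. The concentration for full growth arrest is given as TGI.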

`N#CC(c1ccc(Cl)cc1)c1cccc(Cl)n1` (stereo not drawn): the TGI in the test on SNB-78 CNS, with TK-10 renal, in the test with OVCAR-4 ovarian, with SK-OV-3 ovarian, in the test with OVCAR-8 ovarian and with OVCAR-5 ovarian was above 100 µM in each case.

For the compound `CO/C=C/c1cc2c(cc1C(OC)OC)OCO2`, the TGI in the test with SK-MEL-5 melanoma is 42.8 µM; with SNB-78 CNS it was above 100 µM; with TK-10 renal, above 100 µM; in the test with OVCAR-4 ovarian, above 100 µM; in the test with DMS 273 small cell lung it was above 100 µM; with SK-OV-3 ovarian, 79.3 µM. For the same compound, the TGI in the test on OVCAR-8 ovarian and with OVCAR-5 ovarian was above 100 µM each time.

Take `Cc1ccc(C2=NN(C)COC2C(F)(F)F)cc1` (stereo not drawn): the TGI with SK-MEL-5 melanoma, in the test on SNB-78 CNS, in the test with OVCAR-4 ovarian, with DMS 273 small cell lung, in the test on HCT-15 colon and in the test on SK-OV-3 ovarian was above 100 µM throughout. In addition, the TGI in the test with OVCAR-8 ovarian and in the test on OVCAR-5 ovarian was above 100 µM throughout.

As to `CCC12CC[C@H](C#N)N3CCc4c(n(c5ccccc45)C(=O)C1)C32` (stereo partly drawn), the TGI in the test on SK-MEL-5 melanoma came out at 27.2 µM; in the test on SNB-78 CNS, 51.9 µM; with TK-10 renal, 46.8 µM; in the test on OVCAR-4 ovarian, 31.7 µM; with DMS 273 small cell lung, 19 µM; with HCT-15 colon, 20.3 µM. Further, the TGI worked out at 75 µM in the test with SK-OV-3 ovarian, 57.5 µM in the test with OVCAR-8 ovarian and 38.5 µM with OVCAR-5 ovarian.

Regarding `O=C(O/N=C1/CCC/C1=C\c1ccccc1)c1ccccc1`, the TGI in the test on SK-MEL-5 melanoma, with SNB-78 CNS, with TK-10 renal, in the test on OVCAR-4 ovarian, in the test with DMS 273 small cell lung and in the test with HCT-15 colon was above 100 µM each time. Also, the TGI with SK-OV-3 ovarian, in the test on OVCAR-8 ovarian and in the test on OVCAR-5 ovarian was above 100 µM throughout.

Turning to `COc1ccc(C2c3cc4c(cc3OC(O)(CO)C2C(=O)O)OCO4)c(OC)c1OC` (stereo not drawn) (tested in a mixture with another compound), the TGI in the test on SK-MEL-5 melanoma, in the test with SNB-78 CNS, with TK-10 renal, in the test on OVCAR-4 ovarian, in the test with DMS 273 small cell lung and with HCT-15 colon was above 100 µM throughout. Moreover, the TGI in the test with SK-OV-3 ovarian and in the test with OVCAR-8 ovarian was above 100 µM each time.

Take `CC1CC(C)C(=O)C(C(=O)CC2CC(=O)NC2=O)C1` (stereo not drawn): the TGI in the test with SNB-78 CNS, with TK-10 renal, with OVCAR-4 ovarian, in the test with DMS 273 small cell lung, in the test with SK-OV-3 ovarian and with OVCAR-8 ovarian was above 100 µM each time. This compound also yielded a TGI in the test with OVCAR-5 ovarian above 100 µM.

For the compound `N#Cc1c(C(N)=O)ncn1Cc1ccccc1`, the TGI in the test on SK-MEL-5 melanoma, in the test with SNB-78 CNS, with TK-10 renal, in the test with OVCAR-4 ovarian, in the test with DMS 273 small cell lung and in the test with HCT-15 colon was above 100 µM each time. Further, the TGI in the test with SK-OV-3 ovarian, in the test on OVCAR-8 ovarian and in the test on OVCAR-5 ovarian was above 100 µM in each case.

Turning to `Cn1cc(C(=O)/C(Cl)=C(\Cl)C(=O)O)c2ccccc21`, the TGI in the test with SK-MEL-5 melanoma, in the test on SNB-78 CNS, in the test with TK-10 renal, with OVCAR-4 ovarian, in the test on DMS 273 small cell lung and in the test on HCT-15 colon was above 100 µM throughout. In addition, the TGI in the test with SK-OV-3 ovarian, with OVCAR-8 ovarian and in the test with OVCAR-5 ovarian was above 100 µM in each case.

Turning to `O=C(Nc1ccc(N=Nc2ccccc2)cc1)Sc1ccccc1C(=O)O`, the TGI in the test with SNB-78 CNS, in the test on TK-10 renal, in the test on OVCAR-4 ovarian, with DMS 273 small cell lung, with HCT-15 colon and with OVCAR-8 ovarian was above 100 µM each time. Besides, the TGI in the test on OVCAR-5 ovarian is above 100 µM.

Turning to `CC(=O)Oc1cc2c(=O)oc3c(OC(C)=O)c(OC(C)=O)c(OC(C)=O)c4c(=O)oc(c1OC(C)=O)c2c34`, the TGI in the test on SK-MEL-5 melanoma, in the test with SNB-78 CNS, in the test with TK-10 renal, in the test with OVCAR-4 ovarian, with DMS 273 small cell lung and in the test with HCT-15 colon was above 100 µM in each case. Besides, the TGI in the test with SK-OV-3 ovarian, in the test with OVCAR-8 ovarian and in the test on OVCAR-5 ovarian was above 100 µM each time.

In the case of `CC(=O)[CH-]C(C)=O.CC(=O)[CH-]C(C)=O.CC(=O)[CH-]C(C)=O.[Cl-].[Hf+4]`, the GI50 in the test on TK-10 renal, in the test on OVCAR-4 ovarian, in the test with DMS 273 small cell lung, in the test on HCT-15 colon, in the test on SK-OV-3 ovarian and in the test with OVCAR-8 ovarian was above 100 µM in each case. Also, the GI50 with OVCAR-5 ovarian was above 100 µM. Besides, the TGI in the test on TK-10 renal, in the test on OVCAR-4 ovarian, in the test on DMS 273 small cell lung, in the test with HCT-15 colon, in the test on SK-OV-3 ovarian and in the test with OVCAR-8 ovarian was above 100 µM throughout. Further, the TGI in the test with OVCAR-5 ovarian was above 100 µM.

As to `CCC[CH2][Sn]([CH2]CCC)([O]C(=O)c1cccc(F)c1F)[O][Sn]([CH2]CCC)([CH2]CCC)[O]C(=O)c1cccc(F)c1F`, the GI50 in the test on SK-MEL-5 melanoma is 0.52 µM; with SNB-78 CNS, 0.139 µM; in the test with TK-10 renal it was 0.206 µM; in the test with OVCAR-4 ovarian, 0.459 µM; in the test with DMS 273 small cell lung it was 0.301 µM; in the test with HCT-15 colon it was 0.243 µM. Besides, the GI50 is 0.915 µM in the test with SK-OV-3 ovarian, 0.285 µM in the test with OVCAR-8 ovarian, 1.47 µM in the test on OVCAR-5 ovarian and 0.121 µM in the test on BT-549 breast. The TGI with SK-MEL-5 melanoma is 1.69 µM; in the test on SNB-78 CNS, 1.51 µM; in the test on TK-10 renal it was 0.562 µM; with OVCAR-4 ovarian, 1.28 µM; in the test on DMS 273 small cell lung it was 1.51 µM; in the test with HCT-15 colon it was 0.797 µM. For the same compound, the TGI with SK-OV-3 ovarian is 2.23 µM; in the test with OVCAR-8 ovarian, 1.16 µM; with OVCAR-5 ovarian, 2.9 µM; with BT-549 breast, 0.369 µM.

The record behind these values is PubChem BioAssay (NCI).
